Test results taken from patent publication US12371748B2, “Genetic markers for predicting responsiveness to therapy with HDL-raising or HDL mimicking agent” (Hoffmann-La Roche Inc., priority 2014, dated 2025).

Test system: patients recently hospitalized for an Acute Coronary Syndrome (ACS)
Test: dal-OUTCOMES pharmacogenomic study: cardiovascular events by ADCY9 genotype (Cox proportional hazards)
Format: in vivo, human
Set-up: key to Responsiveness to treatment: NR = non-responsive; PR = partially responsive; R = responsive
Details: for HR, dal-OUTCOMES: per copy of minor allele; for Hazard ratio (dal vs placebo): time to events
Method: Dal-OUTCOMES trial (NC20971) was a double blind, randomized, placebo-controlled, parallel group, multi-center, phase III study to assess the safety and efficacy of the CETP inhibitor dalcetrapib in patients recently hospitalized for an Acute Coronary Syndrome (ACS). At time of the interim analysis the study included 15871 randomized patients, distributed over two treatment arms: placebo (7933 patients) and dalcetrapib (600 mg daily; 7938 patients). […] The dal-OUTCOMES study details can be found in G. Schwartz et al., N. Engl. J. Med. 367; 22, 2012.
dal-Outcomes patients were recruited 4 to 12 weeks following hospitalization for acute coronary syndrome characterized by elevated cardiac biomarkers, with symptoms of acute myocardial ischemia, ischemic electrocardiographic abnormalities that were new or presumed to be new, or loss of viable myocardium on imaging. Patients without elevated cardiac biomarkers were eligible to participate if symptoms of acute myocardial ischemia were accompanied by electrocardiographic changes that were new or presumed to be new and by additional evidence of obstructive coronary disease. (Schwartz G G et al. Am Heart J 2009; 158:896-901 e3).
All patients were following individualized programs to target LDL cholesterol levels of 100 mg per deciliter (2.6 mmol per liter) or lower by statin if tolerated and diet. No specific statin agent was specified, and patients were not excluded based on LDL cholesterol values. Patients with serum triglyceride levels of 400 mg per deciliter (4.5 mmol per liter) or higher were excluded. (Schwartz G G et al. N Engl J Med 2012; 367:2089-99) Eligible participants to the dal-Outcomes trial entered a single-blind placebo run-in period of approximately 4 to 6 weeks to allow for patients to stabilise and for completion of planned revascularisation procedures. At the end of the run-in period, eligible patients in stable condition were randomised in a 1:1 ratio to 600 mg of dalcetrapib or placebo on top of evidence-based medical care for acute coronary syndrome. Cardiovascular events were adjudicated by an independent clinical endpoint committee. For the pharmacogenomics study, 6338 patients were recruited from April 2008 through July 2010 at 461 sites in 14 countries and provided written informed consent to participate to the genetic study of the dal-OUTCOMES trial. DNA was extracted from whole blood. Following genomic data cleanup, samples from 5749 Caucasian patients were used for the discovery genome-wide association study (GWAS).
The Illumina Infinium HumanOmni2.5Exome-8v1_A BeadChip including 2,567,845 genetic variants (Illumina, San Diego, California) was used for the discovery GWAS of 5749 Caucasian participants to the dal-OUTCOMES study. The chromosome 16 region including 5 genes upstream and downstream of the adenylate cyclase type 9 (ADCY9) gene (CHR16: 3,400,000-4,600,000) was imputed using IMPUTE2, providing 17,764 variants for analysis with an average completion rate of 99.76%. A Sequenom panel was used for the confirmation of imputed single nucleotide polymorphisms (SNPs) in the ADCY9 gene identified in dal-OUTCOMES and were tested in the dal-PLAQUE-2 study, including 20 SNPs with P values<0.05 from the discovery GWAS.
Genome-wide association study (GWAS)—Genome-wide genotyping was performed using 200 ng of genomic DNA in GLP-environment at the Beaulieu-Saucier Pharmacogenomics Centre (Montreal, Canada). The Illumina Infinium HumanOmni2.5Exome-8v1_A BeadChip (Illumina, San Diego, CA) including 2,567,845 genomic markers was used and processed according to the manufacturer's specifications. This chip includes over 200,000 exome variants identified through the Exome Chip Consortium. The remaining BeadChip content is a mix of rare and common SNPs from the 1000 Genome Project designed to be maximally informative for diverse world populations. Each BeadChip was scanned and analyzed using the Illumina iScan Reader. […]

Structure (SMILES): CCC(CC)CC1(C(=O)Nc2ccccc2SC(=O)C(C)C)CCCCC1 [dalcetrapib, thioisobutyric acid S-(2-{[1-(2-ethyl-butyl)-cyclohexanecarbonyl]-amino}-phenyl) ester]
- HR, association of rs2238448 with events in dal-OUTCOMES (dalcetrapib arm, genetic effect): 0.67
- Patients with events (dalcetrapib arm, rs1967309 AA): 38
- Patients without events (dalcetrapib arm, rs1967309 AA): 447
- Patients with events (dalcetrapib arm, rs1967309 AG): 176
- Patients without events (dalcetrapib arm, rs1967309 AG): 1203
- Patients with events (dalcetrapib arm, rs1967309 GG): 176
- Patients without events (dalcetrapib arm, rs1967309 GG): 802
- HR, dal-OUTCOMES (rs1967309, Cox additive genetic model): 0.651
- HR, dalcetrapib compared to placebo, coronary revascularizations removed from the endpoint (rs1967309 AA): 0.60
- Responsiveness to treatment (rs1967309 AA): R
- reduction in pre-specified composite endpoint with dalcetrapib compared to placebo (rs1967309 AA (n=961)): 39%
- HR, composite endpoint, dalcetrapib compared to placebo (rs1967309 AA (n=961), discovery cohort): 0.61
- Hazard ratio (dal vs placebo) (rs1967309 AA): 0.625
- Responsiveness to treatment (rs1967309 AG): PR
- Hazard ratio (dal vs placebo) (rs1967309 AG): 0.953
- Responsiveness to treatment (rs1967309 GG): NR
- increase in cardiovascular events, dalcetrapib versus placebo (rs1967309 GG (n=1984)): 27%
- HR, cardiovascular events, dalcetrapib versus placebo (rs1967309 GG (n=1984), discovery cohort): 1.27
- Hazard ratio (dal vs placebo) (rs1967309 GG): 1.248
- response to dalcetrapib in words (rs1967309 heterozygous AG): intermediate response
- HR, cardiovascular events, dalcetrapib versus placebo (rs1967309 heterozygous AG (n=2796), discovery cohort): 0.94
- HR, dal-OUTCOMES (rs2238448, Cox additive genetic model): 0.671
- Responsiveness to treatment (rs2238448 CC): NR
- Hazard ratio (dal vs placebo) (rs2238448 CC): 1.291
- Responsiveness to treatment (rs2238448 CT): PR
- Hazard ratio (dal vs placebo) (rs2238448 CT): 0.974
- Responsiveness to treatment (rs2238448 TT): R
- Hazard ratio (dal vs placebo) (rs2238448 TT): 0.657
- HR, dal-OUTCOMES (rs2239310, Cox additive genetic model): 0.674
- Responsiveness to treatment (rs2239310 AA): NR
- Hazard ratio (dal vs placebo) (rs2239310 AA): 1.150
- Responsiveness to treatment (rs2239310 AG): PR
- Hazard ratio (dal vs placebo) (rs2239310 AG): 0.971
- Responsiveness to treatment (rs2239310 GG): R
- Hazard ratio (dal vs placebo) (rs2239310 GG): 0.623
- HR, dal-OUTCOMES (rs2283497, Cox additive genetic model): 0.766
- Responsiveness to treatment (rs2283497 GG): NR
- Hazard ratio (dal vs placebo) (rs2283497 GG): 1.226
- Responsiveness to treatment (rs2283497 GT): PR
- Hazard ratio (dal vs placebo) (rs2283497 GT): 0.999
- Responsiveness to treatment (rs2283497 TT): R
- Hazard ratio (dal vs placebo) (rs2283497 TT): 0.581
- HR, dal-OUTCOMES (rs2531967, Cox additive genetic model): 0.734
- Responsiveness to treatment (rs2531967 AA): R
- Hazard ratio (dal vs placebo) (rs2531967 AA): 0.786
- Responsiveness to treatment (rs2531967 AG): PR
- Hazard ratio (dal vs placebo) (rs2531967 AG): 0.855
- Responsiveness to treatment (rs2531967 GG): NR
- Hazard ratio (dal vs placebo) (rs2531967 GG): 1.121
- HR, dal-OUTCOMES (rs2531971, Cox additive genetic model): 0.664
- Responsiveness to treatment (rs2531971 AA): R
- Hazard ratio (dal vs placebo) (rs2531971 AA): 0.660
- Responsiveness to treatment (rs2531971 AC): PR
- Hazard ratio (dal vs placebo) (rs2531971 AC): 0.965
- Responsiveness to treatment (rs2531971 CC): NR
- Hazard ratio (dal vs placebo) (rs2531971 CC): 1.254
- HR, dal-OUTCOMES (rs3730119, Cox additive genetic model): 0.763
- Responsiveness to treatment (rs3730119 AA): R
- Hazard ratio (dal vs placebo) (rs3730119 AA): 0.472
- Responsiveness to treatment (rs3730119 AG): PR
- Hazard ratio (dal vs placebo) (rs3730119 AG): 0.887
- Responsiveness to treatment (rs3730119 GG): NR
- Hazard ratio (dal vs placebo) (rs3730119 GG): 1.059
- HR, dal-OUTCOMES (rs4786454, Cox additive genetic model): 0.668
- Responsiveness to treatment (rs4786454 AA): R
- Hazard ratio (dal vs placebo) (rs4786454 AA): 0.573
- Responsiveness to treatment (rs4786454 AG): PR
- Hazard ratio (dal vs placebo) (rs4786454 AG): 0.91
- Responsiveness to treatment (rs4786454 GG): NR
- Hazard ratio (dal vs placebo) (rs4786454 GG): 1.062
- HR, dal-OUTCOMES (rs8049452, Cox additive genetic model): 1.413
- Responsiveness to treatment (rs8049452 CC): R
- Hazard ratio (dal vs placebo) (rs8049452 CC): 0.804
- Responsiveness to treatment (rs8049452 CT): PR
- Hazard ratio (dal vs placebo) (rs8049452 CT): 0.971
- Responsiveness to treatment (rs8049452 TT): NR
- Hazard ratio (dal vs placebo) (rs8049452 TT): 1.543
- HR, dal-OUTCOMES (rs8061182, Cox additive genetic model): 1.343
